Test results reported in publication PMC9963438, “Emerging Effects of Resveratrol Derivatives in Cells Involved in Oral Wound Healing: A Preliminary Study” (International Journal of Molecular Sciences, 2023).

Key:
Assay type in all cases: cell-based, human
HUVECs = assay: MTT viability/proliferation on HUVECs
Description: (§1) To measure HUVECs, HGFs, and HOBs metabolic activity as an indicator of cell viability and proliferation, an MTT assay (Sigma Aldrich, Milan, Italy) was performed. In brief, 8000 cells/well (HUVECs, HGFs and HOBs) were seeded in 96-well plates and after 24 h cells were treated with increasing concentrations of 1d and 1h for 48 h and 72 h. Then, the medium was replaced by a fresh one supplemented with […] MTT and probed for 4 h at 37 °C. The medium containing MTT was discarded and replaced by an equal volume of DMSO to dissolve formazan crystals. The absorbance of the solution was read at a 540 nm wavelength by a microplate reader (Multiskan GO, Thermo Scientific, MA, USA). Values obtained without cells were considered as background. Viability and proliferation were normalized to control cells treated with DMSO 0.1%.

HGFs [1] = assay: MTT viability/proliferation on HGFs; conditions: vs CTRL and RSV 10 µM
Description: For the initial screening, HGFs were seeded at a density of 8000 cells/well into a 96-well culture plate and cultured for 24 h. […] The DMSO final concentration was established at 0.1% in all tested samples.
as §1

HOBs = assay: MTT viability/proliferation on HOBs; conditions: vs CTRL and RSV 10 µM
Description: as §1

HGFs [2] = assay: Toluidine blue staining, morphology and confluence of HGFs; conditions: for HGFs confluence: compared to controls
Description: The influence of 1d and 1h was evaluated on cells density and morphology by toluidine-blue staining. A total of 2 × 10^4 cells/well were cultured in 24-well plates and were incubated at 37 °C and 5% CO2 with tested compounds at 5 µM. After 48 and 72 h, adherent cells were fixed with 70% cold ethanol and stained with 1% toluidine blue and 1% borax (Sigma Aldrich, St. Louis, MO, USA). Cells were then observed by an inverted microscope connected with a camera at 40×, 100×, and 200× magnifications (Leica, Wild Heer-brugg, Wetzlar, Germany).

[3] = tested on: Alkaline phosphatase (ALP) activity in HOBs; assay: ALP activity assay in HOBs; conditions: 5 µM, 7 days, compared to CTRL and RSV; not statistically significant
Description: Alkaline phosphatase (ALP) activity was evaluated by ALP assay kit colorimetric AB83369 (Abcam Inc., Cambridge, UK). HOBs were seeded at a density of 5 × 10^4 cells/well and treated with 1d and 1h. After 7 days of culture, cell lysate was obtained, and ALP levels were measured according to the manufacturer instructions. The absorbance was measured at 450 nm by a microplate reader (Synergy H1 Hybrid BioTek Instruments, Winooski, VT, USA).

COL1 mRNA in HGFs = assay: RT-qPCR of COL1 in HGFs
Description: (§2) Total RNA was isolated using Trifast reagent (EuroClone) according to the manufacturer instructions from 3 × 10^5 cells/well treated with increasing concentrations of 1d and 1h for 48 h and 72 h. Complementary DNA (cDNA) was obtained using GoTaq® 2 Step RT-qPCR Kit (Promega, Madison, WI, USA) in accordance with the manufacturer’s instructions. RT-qPCR was carried out using SYBR Green (Promega) on the Quant Studio 7 Pro Real-Time PCR System (ThermoFisher, Waltham, MA, USA). The results were normalized to glyceraldehyde 3-phoshate dehydrogenase (GAPDH) for HUVECs and HGFs and to β-actin (βACT) for HOBs using the 2^−ΔΔCt method.

ALP mRNA in HOBs = assay: RT-qPCR of ALP in HOBs; conditions: all concentrations (5, 10, 20 µM), compared to CTRL; not significant
Description: as §2

OCN mRNA in HOBs = assay: RT-qPCR of OCN in HOBs
Description: as §2

[4] = 5 µM, 72 h, vs CTRL and RSV 10 µM
[5] = 10 µM, 48 h, vs CTRL and RSV 10 µM
[6] = 10 µM, 72 h, vs CTRL and RSV 10 µM
[7] = 20 µM, 72 h, vs CTRL and RSV 10 µM
[8] = 72 h, 1d and 1h 5 µM, RSV 10 µM
[9] = all concentrations (5, 10, 20 µM), 48 and 72 h

Question: How did the “HUVECs viability (MTT)” value (HUVECs; 5 µM, 48 h, vs CTRL (0.1% DMSO) and RSV 10 µM) turn out when `Cc1ccc(S(=O)(=O)Nc2ccc(/C=C/c3ccccc3)cc2)cc1` [1d, 4-Methyl-N-{4-[(E)-2-phenylvinyl]phenyl}benzenesulfonamide] was run?
Answer: Its value is “slight increase in metabolic activity at 5 µM compared to the CTRL and a significant increase compared to RSV”.

Question: What about the “HUVECs viability (MTT)” value (HUVECs; [4]) of the same compound?
Answer: The value was “significantly promoted cell viability with respect to RSV”.

Question: What about the “HUVECs viability (MTT)” value (HUVECs; [5]) of the same compound?
Answer: Its value is “slightly increased for 10 µM only with respect to RSV”.

Question: And the “HUVECs viability (MTT)” value (HUVECs; [6])?
Answer: Its value is “viability was not enhanced”.

Question: What about the “HUVECs viability (MTT)” value (HUVECs; [7]) of the same compound?
Answer: The value was “viability was not enhanced”.

Question: And the “HGFs proliferation rate (MTT)” value (HGFs [1]; 5 µM, 48 h)?
Answer: Its value is “significant increase in proliferation rate”.

Question: What about the “HGFs proliferation rate (MTT)” value (HGFs [1]; 5 µM, 72 h) of the same compound?
Answer: The value was “significantly promoted cell proliferation”.

Question: And the “HGFs proliferation rate (MTT)” value (HGFs [1]; 10 µM, 48 h)?
Answer: The value was “slight increment of cell growth compared to RSV, but not in respect to the CTRL”.

Question: And the “HGFs proliferation rate (MTT)” value (HGFs [1]; 20 µM, 72 h)?
Answer: Its value is “proliferative rate was lower”.

Question: What about the “HOBs metabolic activity / proliferation (MTT)” value (HOBs; 5 µM, 48 h) of the same compound?
Answer: The value was “enhanced the metabolic activity of osteoblasts”.

Question: And the “HOBs metabolic activity / proliferation (MTT)” value (HOBs; 5 µM, 72 h)?
Answer: The value was “significantly promoted the proliferation of cells”.

Question: And the “HOBs metabolic activity / proliferation (MTT)” value (HOBs; 10 µM, 48 h)?
Answer: The value was “slightly promoted cell growth”.

Question: What about the HGFs morphology (HGFs [2]; 5 µM, 48 h) of the same compound?
Answer: Its HGFs morphology is “short and broad and assumed a cuboid to polygonal aspect”.

Question: What about the HGFs confluence (HGFs [2]; 5 µM, 72 h) of the same compound?
Answer: The HGFs confluence was “nearly confluent”.

Question: What about the HGFs morphology (HGFs [2]; [8]) of the same compound?
Answer: Its HGFs morphology is “mainly appeared as long spindles”.

Question: What about the “ALP activity in HOBs” value [3] of the same compound?
Answer: The value was “enhanced”.

Question: And the “COL1 mRNA level” value (COL1 mRNA in HGFs; 5 µM, 48 h, compared to CTRL and RSV)?
Answer: The value was “significantly highest result”.

Question: And the “COL1 mRNA level” value (COL1 mRNA in HGFs; [9])?
Answer: Its value is “increase in COL1 mRNA level”.

Question: What about the “ALP mRNA level” value (ALP mRNA in HOBs) of the same compound?
Answer: The value was “slight increase in the ALP mRNA level”.

Question: And the “OCN mRNA expression” value (OCN mRNA in HOBs; 5 µM, 48 h)?
Answer: Its value is “increased after 48 h exposure to all 1d concentrations with statistical significance just for 5 µM”.

Question: And the “OCN mRNA expression” value (OCN mRNA in HOBs; 5 µM, 72 h, compared to CTRL)?
Answer: Its value is “highest significant peak”.

Question: What about the “OCN mRNA expression” value (OCN mRNA in HOBs; 10, 20 µM, 72 h) of the same compound?
Answer: Its value is “slightly promoted the enhancement of OCN expression”.

Question: And the “OCN mRNA expression” value (OCN mRNA in HOBs; 10 and 20 µM, 48 h)?
Answer: The value was “increased”.

Question: For `CCS(=O)(=O)Nc1ccc(/C=C/c2ccccc2)cc1` [1h, N-{4-[(E)-2-Phenylvinyl]phenyl}ethanesulfonamide], which “HUVECs viability (MTT)” value (HUVECs; [4]) is on record?
Answer: The value was “slightly favored cell growth with respect to RSV”.

Question: What about the “HUVECs viability (MTT)” value (HUVECs; [5]) of the same compound?
Answer: The value was “viability was not induced”.

Question: And the “HUVECs viability (MTT)” value (HUVECs; [6])?
Answer: The value was “viability significantly decreased”.

Question: And the “HUVECs viability (MTT)” value (HUVECs; 20 µM, 48 h, vs CTRL and RSV 10 µM)?
Answer: The value was “viability was not induced”.

Question: And the “HUVECs viability (MTT)” value (HUVECs; [7])?
Answer: The value was “viability significantly decreased”.

Question: And the “HGFs proliferation rate (MTT)” value (HGFs [1]; 5 µM, 48 h)?
Answer: The value was “cell proliferation was significantly higher”.

Question: What about the “HGFs proliferation rate (MTT)” value (HGFs [1]; 5 µM, 72 h) of the same compound?
Answer: The value was “cell proliferation was significantly higher”.

Question: What about the “HOBs metabolic activity / proliferation (MTT)” value (HOBs; 5 µM, 48 h) of the same compound?
Answer: The value was “enhanced the metabolic activity of osteoblasts”.

Question: What about the “HOBs metabolic activity / proliferation (MTT)” value (HOBs; 5 µM, 72 h) of the same compound?
Answer: The value was “significantly enhanced cell proliferation with respect to the CTRL”.

Question: What about the “HOBs metabolic activity / proliferation (MTT)” value (HOBs; 10 µM, 48 h) of the same compound?
Answer: The value was “slightly promoted cell growth”.

Question: What about the “HOBs metabolic activity / proliferation (MTT)” value (HOBs; 20 µM, 48 h) of the same compound?
Answer: Its value is “decreased in respect to the CTRL and RSV”.

Question: What about the HGFs morphology (HGFs [2]; 5 µM, 48 h) of the same compound?
Answer: The HGFs morphology was “short and broad and assumed a cuboid to polygonal aspect”.

Question: And the HGFs confluence (HGFs [2]; 5 µM, 72 h)?
Answer: Its HGFs confluence is “nearly confluent”.

Question: And the HGFs morphology (HGFs [2]; [8])?
Answer: The HGFs morphology was “mainly appeared as long spindles”.

Question: And the “ALP activity in HOBs” value [3]?
Answer: The value was “same ALP levels observed in the control cells and osteoblasts treated with RSV”.

Question: What about the “COL1 mRNA level” value (COL1 mRNA in HGFs; [9]) of the same compound?
Answer: Its value is “increase in COL1 mRNA level”.

Question: What about the “ALP mRNA level” value (ALP mRNA in HOBs) of the same compound?
Answer: Its value is “slight increase in the ALP mRNA level”.

Question: What about the “OCN mRNA expression” value (OCN mRNA in HOBs; 5 µM, 48 h) of the same compound?
Answer: Its value is “significantly stimulated OCN levels with respect to the CTRL”.

Question: What about the “OCN mRNA expression” value (OCN mRNA in HOBs; 10 and 20 µM, 48 h) of the same compound?
Answer: Its value is “slightly promoted”.

Question: What about the “OCN mRNA expression” value (OCN mRNA in HOBs; 72 h, in respect to CTRL, levels comparable to RSV) of the same compound?
Answer: Its value is “slightly increased OCN expression”.
